Molecules are shown by their SMILES.

Usually IC50 stands for the concentration needed to halve the response being measured. A low value points to greater potency in that assay.

The test system of test [1] is L1210 cells. Nature of the test: Growth of L1210 cells (viable cell count, Trypan blue). In kind it is cell-based, mouse. The settings on record: 50% inhibition of growth. The protocol:
(§1) The cells used correspond to various cell lines: human lung normal embryonic fibroblasts (MRC5), mouse melanoma cells (B16), mouse lymphocytic leukaemia cells (L1210) and L1210T cells obtained by infecting L1210 cells with a retroviral vector bearing human ALDH1 cDNA.
The procedure used for the tests on the L1210 cells is as follows: • 10^5 cells are incubated in the various wells of a microplate in 1 ml of culture medium. After incubating for 4 hours, the test compounds are added to the wells containing the L1210 cells.
For the L1210 cells, the growth is measured by counting the viable cells in the presence of 0.1% Trypan blue.
(§2) The IC50 concentration is the concentration corresponding to a 50% inhibition of growth of the cells.

In test [2] the test system is B16 cells. Nature of the test: Growth of B16 cells (protein and DNA assay). The class given is cell-based, mouse. The note with it: 50% inhibition of growth. On the procedure:
as §1
The procedure used for the tests on the B16 and MRC5 cells is as follows: • The test compounds are added 4 hours after placing the cells in the wells. After 72 hours, the cells are removed at different times. The B16 and MRC5 cells are washed twice with PBS and recovered directly with 0.1M sodium chloride.
The effect on the growth of the B16 and MRC5 cells is measured by protein assay according to the Lowry method (Lowry, O. H., Rosenbrough, N. J., Farr, A. L. and Randall, J. Biol. Chem. 193, 265-275, (1951)) and DNA assay by the Hoechst method (West, D. C., Sattar, A. and Kumar, S., Anal. Biochem. 147, 289-295, (1985)).
as §2

Test [3] concerns R7 cells. Nature of the test: Growth of R7 cells which overexpress the MDR gene. In kind it is cell-based. The settings on record: increasing concentrations, 72 h, FIGS. 7 and 8. The protocol: 10^5 cells were incubated in the various wells of a microplate in 1 ml of culture medium. These are R7 cells, on the one hand, and K562 cells, on the other hand.
After incubating for 4 hours, the test compound (compound of Example 1 according to the invention, on the one hand, and daunorubicin, on the other hand) was added to the wells containing the cells.
After 72 hours, the cells were collected at different times.
The growth of the cells was measured by counting the viable cells in the presence of 0.1% Trypan blue.
FIGS. 7 and 8 respectively represent the percentage inhibition (I %) by daunorubicin and the compound of Example 1 on the growth of the R7 and K562 cells, obtained at increasing concentrations C. The results obtained with the K562 cells are symbolized by ♦ and those obtained with the R7 cells are symbolized by ▴.

In test [4] the test system is normal human prostate cells. Nature of the test: Combination of two compounds of the invention on normal human prostate cells. In kind it is cell-based. The settings on record: 2 μM. The protocol:
10^5 normal human prostate cells or 10^5 cancerous human prostate cells (DU145) are incubated in various wells of a microplate in 1 ml of culture medium.
The compounds are added 4 hours after placing the cells in the wells.
After 72 hours, the cells are removed at different times. The DU145 cells or the normal cells are washed twice with PBS and recovered directly with 0.1M sodium chloride.
The effect on the growth of the DU145 cells or the normal cells is measured by protein assay according to the Lowry method (Lowry, O. H., Rosenbrough, N. J., Farr, A. L. and Randall, J. Biol. Chem. 193, 265-275, (1951)) and DNA assay by the Hoechst method (West, D. C., Sattar, A. and Kumar, S., Anal. Biochem. 147, 289-295, (1985)).

Take `CSC(=O)C#CC(C)(C)N(C)C` [Example 1, S-methyl 4-dimethyl-amino-4-methyl-2-pentynethioate]: the half-maximal inhibitory concentration (IC50) came to 1.2 µM in test [1] and 0.8 µM in test [2]. In addition, the “Inhibition of the growth of the R7 cells” value in test [3] is reported as “very strongly inhibits the growth of the R7 cells”. For the same molecule, the “% Inhibition of normal human prostate cells” value in test [4] is recorded as 3.7%.

For the origin of these results see patent US8026231B2, “Aminothiolester compounds, pharmaceutical and cosmetic compositions containing same and uses thereof” (CNRS, priority 2000, dated 2011).
